Laboratory results from ChEMBL document CHEMBL3137667, “[Drug-induced liver injury; fourteenth updated edition of the bibliographic database of liver injuries and related drugs]” (Gastroenterol Clin Biol, 2004).

Tests used:
[1] = human, serum, 4383 h
[2] = Presence of at least one case with successful reintroduction. [column 'REINT' in source]; conditions: human
[3] = human, serum
[4] = human
[5] = human; remark: listed apart in the source
[6] = Times to onset, minimal and maximal, observed in the indexed observations. [column 'DELAI' in source]; conditions: human
[7] = Proposed mechanism(s) of liver damage. [column 'MEC' in source]; conditions: human
[8] = Comments (NB not yet translated). [column 'COMMENTAIRES' in source]; conditions: human
[9] = human, serum; remark: listed apart in the source
[10] = human; remark: listed apart in the source
[11] = human; remark: listed apart in the source
[12] = human; remark: listed apart in the source
[13] = human; remark: listed apart in the source
[14] = human; remark: listed apart in the source
[15] = human; remark: listed apart in the source
[16] = human; remark: listed apart in the source
[17] = Highest frequency of moderate liver toxicity observed during clinical trials, expressed as a percentage. [column '% BIOL' in source]; conditions: human
[18] = Highest frequency of acute liver toxicity observed during clinical trials, expressed as a percentage. [column '% AIGUE' in source]; conditions: human
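Throughout, for Hepatotoxicity (association with vascular disease): count of indexed literature references reporting vascular liver injury in humans, e.g. peliosis hepatitis, hepatic veno-occlusive disease or Budd-Chiari syndrome.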
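Throughout, for Hepatotoxicity (benign tumour): value is a count of indexed literature references citing a benign tumour confirmed by histopathology.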
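Throughout, for Hepatotoxicity (choleostasis): human cholestatic liver injury, shown by histopathology or by peak ALT or AST elevation over alkaline phosphatase ratio below 2, value counts indexed literature reports.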
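Throughout, for Hepatotoxicity (chronic liver disease): chronic liver injury confirmed by histopathology or persistently raised serum aminotransferase activity beyond 6 months, value given as the count of indexed literature references.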
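Throughout, for Hepatotoxicity (cirrhosis): value is a count of indexed literature references reporting cirrhosis confirmed by histopathology.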
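Throughout, for Hepatotoxicity (cytolytic): human cytolytic liver injury, shown by histopathology or by a ratio above 5 of peak ALT or AST elevation to alkaline phosphatase elevation, value counts indexed references.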
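Throughout, for Hepatotoxicity (granulomatous hepatitis): value is a count of indexed literature references reporting granulomatous liver disease confirmed by histopathology.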
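Throughout, for Hepatotoxicity (malignant tumour): malignant tumour confirmed by histopathology, value gives the count of indexed literature references reporting it.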
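Throughout, for Hepatotoxicity (severe hepatitis): human clinical data: severe hepatitis, meaning potentially life-threatening liver failure or clinically observed cases, the value counts how many indexed literature references report it.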
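Throughout, for Hepatotoxicity (steatosis): steatosis confirmed by histopathology, value is the count of indexed references.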

Row | Compound | Hepatotoxicity (chronic liver disease) [1] | Hepatotoxicity (successful reintroduction) [2] | Hepatotoxicity (moderate) [3] | Hepatotoxicity (steatosis) [4] | Hepatotoxicity (severe hepatitis) [5] | Hepatotoxicity (time to onset) [6] | Hepatotoxicity (mechanism) [7] | Hepatotoxicity (comment) [8] | Hepatotoxicity (acute) [9] | Hepatotoxicity (association with vascular disease) [10] | Hepatotoxicity (cirrhosis) [11] | Hepatotoxicity (benign tumour) [12] | Hepatotoxicity (choleostasis) [13] | Hepatotoxicity (cytolytic) [14] | Hepatotoxicity (malignant tumour) [15] | Hepatotoxicity (granulomatous hepatitis) [16] | Hepatotoxicity (moderate) [17] [%] | Hepatotoxicity (acute) [18] [%] | further results
1 | INTERFERON ALFA-2A | 0 | yes | 50 | 0 | 2 | 1 week - 9 months | Allergic, Dose-dependant | AC_ANTI-ML/-N AGGRAVATION_HAI/HVB I/PARACETAMOL CBP | 10 | 0 | 1 | 0 | 2 | 7 | 0 | 0 | 92 | 35.7 | –
2 | CC1=C(/C=C/C(C)=C/C=C/C(C)=C/CO)C(C)(C)CCC1.O=C(O)Cc1cc(I)c(Oc2ccc(O)c(I)c2)c(I)c1 | 1 | yes | 0 | 0 | – | 2 weeks - 9 years | – | AC_ANTI-N | 7 | 0 | 1 | 0 | – | – | 0 | – | – | – | Hepatotoxicity (severe hepatitis) ([5]; Liver): 1; Hepatotoxicity (mechanism) ([7]; Liver): Allergic; Hepatotoxicity (choleostasis) ([13]; Liver): 1; Hepatotoxicity (cytolytic) ([14]; Liver): 7; Hepatotoxicity (granulomatous hepatitis) ([16]; Liver): 0; Hepatotoxicity (moderate) ([17]; Liver): 0%; Hepatotoxicity (acute) ([18]; Liver): 0%
3 | O=C(O)CCCCCCNC1c2ccccc2CCc2ccccc21 [AMINEPTINE] | 0 | yes | 6 | 5 | 0 | 1 day - 10 months | Allergic, Reactive metabolite | RC/CLOMIPRAMINE | 20 | 0 | 1 | 0 | 18 | 17 | 0 | 0 | 0.6 | 0 | –
4 | CCC1(c2ccccc2)C(=O)NC(=O)NC1=O [PHENOBARBITAL] | 1 | yes | 8 | 1 | 10 | 6 days - 2 years | Allergic | I/PARACETAMOL AC_ANTI-N/-MF CHOLANGITE | 30 | 0 | 0 | 0 | 4 | 23 | 0 | 1 | 0 | 0 | –
5 | CCOC(=O)n1ccn(C)c1=S [CARBIMAZOLE] | 0 | yes | 2 | 2 | 3 | 1 day - 5 years | Allergic | RC/METHIMAZOLE/BENZYLTHIOURACILE | 18 | 0 | 0 | 0 | 14 | 5 | 0 | 1 | 0 | 0 | –
